Test system: LG0703-F498-PDC complex spheroid growth
Assay: Anticancer human tumor LG0703-F498-PDC patient-derived lung adenocarcinoma cell line growth inhibition [AhR]
Conditions: for IC50: curve of first compound; for viability, T/C: stronger effect = lower value
Outline: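 Spheroids combined tumor cells with HUVEC endothelial cells and human MSCs as stroma. AhR antagonists were paired with standard or investigational drugs, each dosed in half-log steps down from near clinical Cmax, or from 10 microM where Cmax was unknown.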

[1] = second compound 0.1 µM, first compound 0.00949 µM
[2] = second compound 0.1 µM, first compound 0.03 µM
[3] = second compound 0.1 µM, first compound 0.0949 µM
[4] = second compound 0.1 µM, first compound 0.3 µM
[5] = second compound 0.316 µM, first compound 0.00949 µM
[6] = second compound 0.316 µM, first compound 0.03 µM
[7] = second compound 0.316 µM, first compound 0.0949 µM
[8] = second compound 0.316 µM, first compound 0.3 µM
[9] = second compound 1 µM, first compound 0.00949 µM
[10] = second compound 1 µM, first compound 0.03 µM
[11] = second compound 1 µM, first compound 0.0949 µM
[12] = second compound 1 µM, first compound 0.3 µM
[13] = second compound 3.16 µM, first compound 0.00949 µM
[14] = second compound 3.16 µM, first compound 0.03 µM
[15] = second compound 3.16 µM, first compound 0.0949 µM
[16] = second compound 3.16 µM, first compound 0.3 µM
[17] = second compound 10 µM, first compound 0.00949 µM
[18] = second compound 10 µM, first compound 0.03 µM
[19] = second compound 10 µM, first compound 0.0949 µM
[20] = second compound 10 µM, first compound 0.3 µM
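Note: luminescence taken as a proxy for viable cell amount.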
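Throughout, for viability, T/C: percent of DMSO vehicle control where 100% means growth equal to vehicle.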

O=C(C=Cn1cnc(-c2cc(C(F)(F)F)cc(C(F)(F)F)c2)n1)NNc1cnccn1 + CC(CO)NC(=O)c1cc(-c2ccc(Cl)cc2)nn(-c2cnn(C)c2)c1=O
IC50 (second compound 0.1 µM): 60 nM | IC50 (second compound 0.316 µM): 45.6 nM | IC50 (second compound 1 µM): 57.3 nM | IC50 (second compound 3.16 µM): 26.9 nM | IC50 (second compound 10 µM): 39.7 nM | viability, T/C [1]: 68.1% | viability, T/C [2]: 64.5% | viability, T/C [3]: 40.4% | viability, T/C [4]: 40.6% | viability, T/C (second compound 0.1 µM, first compound 0.949 µM): 37.8% | viability, T/C (second compound 0.1 µM, first compound 3 µM): 36.9% | viability, T/C [5]: 67.3% | viability, T/C [6]: 54.5% | viability, T/C [7]: 42.1% | viability, T/C [8]: 36.2% | viability, T/C (second compound 0.316 µM, first compound 0.949 µM): 35.6% | viability, T/C (second compound 0.316 µM, first compound 3 µM): 32.4% | viability, T/C [9]: 64.8% | viability, T/C [10]: 54.1% | viability, T/C [11]: 48% | viability, T/C [12]: 36.7% | viability, T/C (second compound 1 µM, first compound 0.949 µM): 34.1% | viability, T/C (second compound 1 µM, first compound 3 µM): 34.1% | viability, T/C [13]: 59.5% | viability, T/C [14]: 50.1% | viability, T/C [15]: 36.1% | viability, T/C [16]: 38.2% | viability, T/C (second compound 3.16 µM, first compound 0.949 µM): 28.7% | viability, T/C (second compound 3.16 µM, first compound 3 µM): 31.4% | viability, T/C [17]: 61% | viability, T/C [18]: 54.7% | viability, T/C [19]: 35.7% | viability, T/C [20]: 33.3% | viability, T/C (second compound 10 µM, first compound 0.949 µM): 28.6% | viability, T/C (second compound 10 µM, first compound 3 µM): 28.9%

Nc1ncn(C2CC(O)C(CO)S2)c(=O)n1 (stereo not given) + Cc1ccccc1N=Nc1ccc(NC(=O)c2ccnn2C)c(C)c1
IC50 (second compound 0.1 µM): > 300 nM | IC50 (second compound 0.316 µM): > 300 nM | IC50 (second compound 1 µM): > 300 nM | IC50 (second compound 3.16 µM): > 300 nM | IC50 (second compound 10 µM): > 300 nM | viability, T/C (second compound 0.1 µM, first compound 0.000949 µM): 103% | viability, T/C (second compound 0.1 µM, first compound 0.003 µM): 105% | viability, T/C [1]: 94.5% | viability, T/C [2]: 91.5% | viability, T/C [3]: 94.8% | viability, T/C [4]: 97.2% | viability, T/C (second compound 0.316 µM, first compound 0.000949 µM): 102% | viability, T/C (second compound 0.316 µM, first compound 0.003 µM): 93.9% | viability, T/C [5]: 92.7% | viability, T/C [6]: 93.9% | viability, T/C [7]: 101% | viability, T/C [8]: 111% | viability, T/C (second compound 1 µM, first compound 0.000949 µM): 99.3% | viability, T/C (second compound 1 µM, first compound 0.003 µM): 89.3% | viability, T/C [9]: 80.5% | viability, T/C [10]: 98.7% | viability, T/C [11]: 88% | viability, T/C [12]: 82.5% | viability, T/C (second compound 3.16 µM, first compound 0.000949 µM): 82.5% | viability, T/C (second compound 3.16 µM, first compound 0.003 µM): 85.7% | viability, T/C [13]: 86.6% | viability, T/C [14]: 76.1% | viability, T/C [15]: 78.6% | viability, T/C [16]: 103% | viability, T/C (second compound 10 µM, first compound 0.000949 µM): 87% | viability, T/C (second compound 10 µM, first compound 0.003 µM): 86.8% | viability, T/C [17]: 99% | viability, T/C [18]: 77.4% | viability, T/C [19]: 85% | viability, T/C [20]: 96.9%
